Where two headings read alike, the source gives them in different places.
Columns and labels:
Caco-2 cell monolayers [1] = experiment: Caco-2 cell permeability assay of peramivir with permeability enhancers; conditions: for Fold-Enhancement Over Control / ng peramivir transported/min: peramivir 15 μg/mL
viral neuraminidase = conditions: depending on the influenza strain; based on concentrations required for 50% inhibition of neuraminidase activity in vitro; cited from earlier work
influenza A and B = conditions: oral formulation, phase III clinical trial; cited from earlier work
[2] = test system: avian influenza virus (H5N1); conditions: cited from earlier work
[3] = human, in vivo; cited from earlier work
Caco-2 cell monolayers [4] = test system: Caco-2 cell monolayers
Caco-2 cells = experiment: cytotoxicity of PPS at the concentrations used; type: cell-based; conditions: in the concentrations used (0.001% to 0.01%)
[5] = enhancer concentration 0.05% in HBSS
[6] = enhancer concentration 0.10% in HBSS
[7] = enhancer concentration 0.20% in HBSS

## CCCCCCCC/C=C\CCCCCCCC(=O)OCCOCC(OCCO)C1OCC(OCCO)C1OCCO (stereo not drawn) [Tween-80]
Caco-2 cell monolayers [1]
  peramivir permeability enhancement in Caco-2 cell assays (in words): negative

## phosphatidylcholine
Caco-2 cell monolayers [1]
  peramivir permeability enhancement in Caco-2 cell assays (in words): some potential for peramivir permeability enhancement
Caco-2 cell monolayers [1]; [5]
  Fold-Enhancement Over Control: 2.11 fold
  ng peramivir transported/min: 0.4 ng/min
Caco-2 cell monolayers [1]; [6]
  Fold-Enhancement Over Control: 2.11 fold
  ng peramivir transported/min: 0.4 ng/min
Caco-2 cell monolayers [1]; [7]
  Fold-Enhancement Over Control: 7 fold
  ng peramivir transported/min: 1.33 ng/min

## CCC(CC)[C@H](NC(C)=O)[C@@H]1[C@H](O)[C@@H](C(=O)O)C[C@H]1NC(=N)N [peramivir, (1S,2S,3S,4R)-3-[(1S)-1-Acetamido-2-ethyl-butyl]-4-(diaminomethylideneamino)-2-hydroxy-cyclopentane-1-carboxylic acid]
Viral neuraminidase
  potency as neuraminidase inhibitor relative to oseltamivir (Tamiflu®) and zanimivir: 2 to 10 times
Influenza A and B
  antiviral activity against influenza A and B: did not reach statistical significance
[2]
  sensitivity to peramivir: sensitive
[3]
  oral bioavailability: very poor oral bioavailability

## OCC(O)CO [Glycerol, glycerol]
Caco-2 cell monolayers [4]
  peramivir permeability (in words): substantial increase in peramivir permeability
Caco-2 cell monolayers [4]; human
  peramivir permeability enhancement: Less than 150%

## CCCCCCCCCCCCCCCC[N+](C)(C)CCCS(=O)(=O)[O-] [PPS, 3-(N,N-dimethylpalmitylammonio)propane sulfonate]
Caco-2 cells
  cytotoxicity: not cytotoxic
Caco-2 cell monolayers [1]; PPS varying from 0.001% to 0.01% final concentration
  peramivir permeability (in words): substantially increased peramivir permeability

## O=C([O-])c1ccccc1O.[Na+] [sodium salicylate]
Caco-2 cell monolayers [1]
  peramivir permeability enhancement in Caco-2 cell assays (in words): negative

## CN1CCNCC1 [N-Methylpiperazine, N-methylpiperazine]
Caco-2 cell monolayers [1]
  peramivir permeability enhancement in Caco-2 cell assays (in words): negative

Source: patent US9579383B2, “Formulations for enhanced bioavailability of orally administered polar agents” (ALA WAI PHARMA, INC., priority 2007, dated 2017)
